We go through one compound from patent publication US6872719B1, “Phenylalanine enamide derivatives” (Celltech R & D Limited, priority 2002, dated 2005).

The experiment concerns the target T1, α4β1 integrin (Homo sapiens, UniProt P05556+P13612).
T1 construct: 2.5×10^5 Jurkat cells in the presence or absence of titrated test compounds; endogenous in cells; host or cells: Jurkat cells
The experiment in a line: α4β1 Integrin-Dependent Jurkat Cell Adhesion to VCAM-Ig. In kind it is cell-based. As to conditions: inhibition of Jurkat cell adhesion to 2d VCAM-1-hFc. The method, then: α4β1 Integrin-Dependent Jurkat Cell Adhesion to VCAM-Ig
96 well NUNC plates were coated with F(ab)2 fragment goat anti-human IgG Fcγ-specific antibody [Jackson Immuno Research 109-006-098: 100 μl at 2 μg/ml in 0.1M NaHCO3, pH 8.4], overnight at 4°. The plates were washed (3×) in phosphate-buffered saline (PBS) and then blocked for 1 h in PBS/1% BSA at room temperature on a rocking platform. After washing (3× in PBS) 35 ng/ml of purified 2d VCAM-1-hFc diluted in PBS/1% BSA was added and the plates left for 60 minutes at room temperature on a rocking platform. The plates were washed (3× in PBS) and the assay then performed at 37° for 30 min in a total volume of 200 μl containing 2.5×10^5 Jurkat cells in the presence or absence of titrated test compounds.
Each plate was washed (2×) with medium and the adherent cells were fixed with 100 μl methanol for 10 minutes followed by another wash. 100 μl 0.25% (w/v) Rose Bengal (Sigma R4507) in PBS was added for 5 minutes at room temperature and the plates washed (3×) in PBS. 100 μl 50% (v/v) ethanol in PBS was added and the plates left for 60 min after which the absorbance (570 nm) was measured.

SMILES strings stand for the structures.

T1 sequence (P13612 34-1032): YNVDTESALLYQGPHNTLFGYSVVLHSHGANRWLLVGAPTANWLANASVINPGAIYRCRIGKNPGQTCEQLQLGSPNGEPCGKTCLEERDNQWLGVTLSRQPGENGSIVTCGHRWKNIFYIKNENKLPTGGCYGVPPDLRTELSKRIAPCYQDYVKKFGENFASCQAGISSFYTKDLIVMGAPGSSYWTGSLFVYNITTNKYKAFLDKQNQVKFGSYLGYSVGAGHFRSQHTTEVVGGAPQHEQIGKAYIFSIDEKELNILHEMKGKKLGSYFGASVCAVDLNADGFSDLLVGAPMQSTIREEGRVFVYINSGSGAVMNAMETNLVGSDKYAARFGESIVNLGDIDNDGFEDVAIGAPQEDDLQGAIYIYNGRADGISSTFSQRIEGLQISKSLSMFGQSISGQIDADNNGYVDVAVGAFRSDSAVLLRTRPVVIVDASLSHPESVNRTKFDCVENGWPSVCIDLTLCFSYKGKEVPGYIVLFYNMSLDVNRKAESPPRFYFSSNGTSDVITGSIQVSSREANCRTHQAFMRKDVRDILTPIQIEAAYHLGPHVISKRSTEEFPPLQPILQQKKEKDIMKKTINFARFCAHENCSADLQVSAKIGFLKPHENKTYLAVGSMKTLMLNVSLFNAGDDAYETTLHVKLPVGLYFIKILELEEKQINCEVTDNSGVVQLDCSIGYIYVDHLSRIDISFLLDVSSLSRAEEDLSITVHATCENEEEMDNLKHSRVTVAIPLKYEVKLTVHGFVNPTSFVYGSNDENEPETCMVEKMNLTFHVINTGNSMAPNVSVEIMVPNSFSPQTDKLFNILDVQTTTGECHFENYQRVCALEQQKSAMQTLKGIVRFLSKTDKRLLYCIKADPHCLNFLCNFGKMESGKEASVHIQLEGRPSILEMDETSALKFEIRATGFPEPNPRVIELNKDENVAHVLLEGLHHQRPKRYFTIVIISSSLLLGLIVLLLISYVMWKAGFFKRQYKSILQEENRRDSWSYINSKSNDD
T1 sequence (P05556 21-798): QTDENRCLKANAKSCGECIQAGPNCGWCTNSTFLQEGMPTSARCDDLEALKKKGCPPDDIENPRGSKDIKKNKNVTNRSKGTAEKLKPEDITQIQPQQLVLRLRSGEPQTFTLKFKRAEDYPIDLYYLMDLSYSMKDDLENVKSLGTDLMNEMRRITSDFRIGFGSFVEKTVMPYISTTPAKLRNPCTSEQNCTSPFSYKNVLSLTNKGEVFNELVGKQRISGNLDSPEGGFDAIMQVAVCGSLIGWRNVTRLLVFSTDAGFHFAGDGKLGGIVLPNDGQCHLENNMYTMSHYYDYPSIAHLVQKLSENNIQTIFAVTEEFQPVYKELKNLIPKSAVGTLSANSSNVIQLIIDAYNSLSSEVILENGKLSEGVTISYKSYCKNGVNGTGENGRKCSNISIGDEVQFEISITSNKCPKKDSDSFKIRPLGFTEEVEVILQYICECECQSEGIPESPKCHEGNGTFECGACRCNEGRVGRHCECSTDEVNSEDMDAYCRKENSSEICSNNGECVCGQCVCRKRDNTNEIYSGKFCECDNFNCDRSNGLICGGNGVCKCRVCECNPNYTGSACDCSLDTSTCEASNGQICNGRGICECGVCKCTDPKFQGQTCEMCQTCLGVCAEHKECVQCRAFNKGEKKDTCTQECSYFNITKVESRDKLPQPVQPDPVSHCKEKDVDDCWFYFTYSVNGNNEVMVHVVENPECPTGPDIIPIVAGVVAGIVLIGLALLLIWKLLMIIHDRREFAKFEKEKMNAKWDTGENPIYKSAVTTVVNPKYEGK

By IC50 is commonly meant the point on the concentration scale where inhibition reaches its midpoint. A high value points to weaker potency. `O=C(Nc1ccc(C[C@H](NC2=C(Br)C(=O)C23CCCCC3)C(=O)OCCO)cc1)c1c(Cl)cncc1Cl` [Example 1, 2-Hydroxyethyl (2S)-2-(2-bromo-3-oxo-spiro[3,5]non-1-en-1-ylamino)-3-{4-[(3,5-dichlorolsonicotinoyl)amino]phenyl}propanoate] yielded an IC50 of 4 nM.
